The values below come from patent publication US20250188411A1, “METHOD FOR SELECTIVE REMOVAL OF […] PLURIPOTENT STEM CELLS” (Buddhist Tzu Chi Medical Foundation, priority 2023, published 2025).

For data set [1], the system named is differentiated neurons derived from human iPSCs. The experiment in a line: Calcium ion imaging of differentiated neurons after KCl and glutamic acid stimulation. The settings on record: tested day 38. It counts as cell-based. As to the method:
d. Calcium Ion Imaging Analysis: Cells were seeded onto 10 mm diameter coverslips coated with Geltrex and cultured in NB medium supplemented with RevitaCell and Compound E for 3 days. A 1 μM solution of Fluo-4 was prepared in physiological buffer. The coverslips were incubated in the Fluo-4 solution at 37° C. for 40 minutes, followed by incubation in physiological buffer at 37° C. for 20 minutes. The coverslips were then transferred to a calcium imaging chamber for perfusion imaging. The cells were perfused with physiological buffer for 30 seconds, then switched to 60 mM KCl perfusion for one minute, followed by physiological buffer perfusion for five minutes. Subsequently, the cells were perfused with 1 mM L-glutamic acid for one minute, followed by physiological buffer perfusion for five minutes. Images were captured using a Nikon ECLIPSE Ti2-E microscope and analyzed with NIS-Elements AR software.
Three sets of cells were prepared: one set of cells cultured without n-butylidenephthalide treatment (Ctrl), another set cultured with 500 μM n-butylidenephthalide for 120 hours on day 10 of differentiation (NPC-BP500), and a third set cultured with 500 μM n-butylidenephthalide for 120 hours on day 25 of differentiation (Neuron-BP500). […]

Data set [2] deals with dopamine neurons differentiated from human iPSCs. As to the kind of experiment: Identification of differentiating dopamine neurons (CHSF-DA method): markers, dopamine ELISA, patch-clamp. The class given is cell-based. The settings on record: 100 μM on days 23 to 28 of CHSF-DA differentiation, FIGS. 8A to 8M. As for the experimental part:
2. Dopaminergic Neuron Adherent Differentiation of Human iPSCs (CHSF-DA Differentiation Method): Human iPSCs, cultured in feeder-free environment, were subcultured at a 1:10 ratio for dopaminergic neurons differentiation. For induction, a neural induction medium composed of DMEM/F12 (2:1) and N2 supplement were used and dopaminergic precursor cell-inducing factors basic FGF (FGF-basic, as known as FGF-2 or bFGF) (10 mg/mL), SB431542 (2 μM), CHIR99021 (7.5 μM), SAG (1 μM), and LDN193189 (0.2 μM) were added in days 1 to 12 of the differentiation process. On day 13 of the differentiation process, the medium was switched to a neuron culture medium (Neurobasal medium and N2/B27 supplements), with SAG (0.5 μM) added from days 13 to 18. SAG was removed on day 18, and 100 μM of n-butylidenephthalide was added on days 23 to 28 for a total of 6 days. The cells were subsequently cultured in Neurobasal medium with N2/B27 supplements, the medium was changed every 2 days during the differentiation process with proteins and small molecules re-added.
b. Application of n-Butylidenephthalide in Dopaminergic Neuron Preparation: 100 μM of n-Butylidenephthalide was added from days 23 to 28 during the CHSF-DA differentiation process for a total of 6 days.
a. […] The slides were stored in the dark at 4° C. for subsequent analysis under a fluorescence microscope. […]
(In an ELISA, binding on a coated surface is turned into a signal by an enzyme label.)

In data set [3] the test system is undifferentiated pluripotent stem cells expressing Oct-4. As to the kind of experiment: Oct-4 / N-cadherin immunofluorescence on day 5 of neural stem cell adhesion differentiation. The settings on record: 50, 100 and 200 μM for 24 hours on day 5 of differentiation, FIG. 6. It counts as cell-based, human. As to the method:
4. Neural Stem Cell Adhesion Differentiation of Human iPSCs (Neural Stem Cell Adhesion Differentiation Method): Human iPSCs, cultured in a feeder-free environment, were subcultured at a 1:10 ratio for neural stem cell differentiation. The differentiation was induced by using a neural induction medium composed of DMEM/F12 (2:1) and N2 supplement, with the addition of basic FGF (10 mg/mL), SB431542 (2 μM), and CHIR99021 (3 μM). The medium was changed every two days with proteins and small molecules re-added. Culture time for this neural stem cell adhesion differentiation is up to 7 days.
(§1) a. Drug Efficacy and Concentration Testing: n-Butylidenephthalide was diluted to different concentrations and administered to cells at final concentrations ranging from 50 to 750 μM. The types of administered cells include cultured human iPSCs, human iPSCs aggregated into SFEBs for one day, neural stem cells on day 10 of SFEB differentiation, neurons on day 25 of SFEB differentiation, and cells on day 5 of neural differentiation by the adhesion. The concentrations and treatment durations were as described in the Examples.
a. Immunofluorescence Staining Method: Chamber slides were surface-treated with 1% basement membrane matrix for 3 to 4 hours, and the slides were set aside after the matrix was removed. […] The slides were stored in the dark at 4° C. for subsequent analysis under a fluorescence microscope. […]

Data set [4] concerns human induced pluripotent stem cells (iPSCs). As to the kind of experiment: Treatment of cultured human iPSCs with n-butylidenephthalide, cell morphology and survival. The class given is cell-based. Conditions: for number of human iPSCs versus control (Ctrl) and DMSO control: 100 μM. As to the method:
1. Culture of iPSCs in Essential 8 Feeder-Free Culture Medium: Human iPSCs were cultured in Essential 8 medium (Gibco) in culture dishes treated with basement membrane matrix (Matrigel). Subculture was performed when the cells reached 70% to 80% confluence, approximately 3 to 5 days. During subculture, the cells were rinsed twice with PBS until the edges began to lift, followed by treatment with a cell dissociation regent (Accutase) for 1 to 5 minutes to round up most of the cells. The cell dissociation regent was then diluted with DMEM/F12, and DMEM medium was added. The cells were scraped with even force by a cell scraper, dispersed into cell mass with appropriate size by mechanical force, and plated at an appropriate ratio (about 1:5 to 1:10) with 10 μM of Y27632 added.
as §1
Human induced pluripotent stem cells (iPSCs) were collected and cultured in Essential 8 medium without a feeder layer. After 24 hours of treatment with different concentrations of n-butylidenephthalide (100 μM, 200 μM, 500 μM, and 750 μM), the cell morphology was shown in FIG. 1A.

Data set [5] relates to neuronal cells differentiated from human iPSCs. The experiment in a line: Treatment of neuronal cell spheroids on day 25 of SFEB differentiation, morphology and NeuN/NF immunofluorescence. It counts as cell-based. As to the method: (§2) 3. Neural Differentiation of Human iPSCs Using the Serum-Free Embryoid Body (SFEB) Method: The differentiation of iPSCs into neural cells was performed in four steps. The first three steps involved SFEB suspension, in which suspended spheroid cells were cultured for 35 days, and the fourth step is a 3-day cell adhesion growth:
(§3) Step 1: iPSCs were aggregated into suspended embryoid bodies (EBs), which is an initial step of differentiation. iPSCs were treated with 1 mg/mL Dispase II until the edges rolled up, then rinsed three times with PBS. The iPSCs were collected by a cell scraper and dispersed into cell mass with appropriate size by visual inspection of pipet. After suspended in Essential 6 medium containing RevitaCell, and the iPSCs were transferred to a sterile, non-adherent 6 cm2 culture plate for a 2-day suspension culture, with daily medium changing.
(§4) Step 2: The EBs were transferred to a 15 mL centrifuge tube for settlement at room temperature, and the EBs were cultured in suspension for 2 days by adding neural induction medium (NI medium, Gibco) after removal of the supernatant. […]
(§5) Step 4: The cells were attached to a culture plate coated with 1% basement membrane matrix or laminin/ornithine. […] The cells grow outward from the center of the colony, and after 3 days of continued culture, the cells were ready for experimentation. […]

For data set [6], the system named is neural stem cells differentiated from human iPSCs. As to the kind of experiment: Treatment of neural stem cells on day 10 of SFEB differentiation, morphology and NeuN/NF immunofluorescence. It counts as cell-based. As for the experimental part:
as §2, §3, §4, §5

Data set [7] concerns embryoid bodies derived from human iPSCs. The experiment in a line: Treatment of embryoid bodies from human iPSCs (SFEB suspension, one day), morphology and trypan blue staining. It counts as cell-based. The settings on record: 24 hours. As for the experimental part:
as §3, §1
Cultured and collected iPSCs were aggregated into spheres using the SFEB suspension method and suspended in culture medium to simulate the three-dimensional structure of general pluripotent cell differentiation and transplantation. After only one day of suspension differentiation, the cells aggregated into structurally complete spheres (embryoid bodies).

For data set [8], the system named is residual undifferentiated pluripotent stem cells. Conditions: early treatment; cited from earlier work.

Consider `CCCC=C1OC(=O)c2ccccc21` [n-butylidenephthalide], for which the “calcium ion changes after KCl and glutamic acid stimulation versus Ctrl” value in data set [1] (NPC-BP500: 500 μM for 120 hours on day 10 of differentiation) and in data set [1] (Neuron-BP500: 500 μM for 120 hours on day 25 of differentiation) was “no statistically significant differences” throughout. Further, the “effect on specific protein expression and neurological function of dopamine neurons” value in data set [2] was “did not affect the expression of specific proteins or the neurological function of dopamine neurons”. Further, in data set [3], the “proportion of undifferentiated pluripotent stem cells expressing Oct-4” value is recorded as “decreased significantly”. For the same compound, the “number of human iPSCs versus control (Ctrl) and DMSO control” value in data set [4] (24 hours, FIG. 1A) is given as “significantly lower”; in data set [4] (48 hours, FIG. 1B), “significantly lower”. Besides, in data set [4] (200 μM, 48 hours, FIG. 1B), the “cell morphology of human iPSCs” value was “obvious floating and cell death”. Moreover, the “adherence and survival of human iPSCs” value in data set [4] (concentrations above 500 μM, 24 hours, FIG. 1A) is recorded as “did not adhere or survive”. For the same compound, the “survival of human iPSCs” value in data set [4] (concentrations above 500 μM, 48 hours, FIG. 1B) was “No cells survived”. In addition, the “damage to neuronal cell spheroids or cell death” value in data set [5] (50, 100, 200 and 500 μM for 120 hours from day 25 of differentiation, FIG. 4B) is on record as “no damage to the spheroids or cell death was observed”. The “NeuN and NF expression and morphology of treated mature neurons” value in data set [5] (treated from day 25, cultured until day 38, FIG. 4C) is listed as “exhibiting typical nerve fiber morphology”. For the same compound, the “cell death or morphological changes of suspended neural stem cell spheres” value in data set [6] (50, 100, 200 and 500 μM for 120 hours from day 10 of differentiation, FIG. 3A) was “no cell death or morphological changes were observed”. The “ability of treated neural stem cells to differentiate into mature neurons (NeuN, NF)” value in data set [6] (treated from day 10, cultured until day 38, FIG. 3B) was “able to differentiate normally into mature neurons”. For the same compound, the entries for the “viable cells by trypan blue staining” value in data set [7] (200 μM) and in data set [7] (500 μM) were “decrease in viable cells” and “no viable cells were observed”, respectively. Also, the “morphology of suspended spheres (embryoid bodies)” value in data set [7] (500 μM, FIG. 2) is “all dispersed and died”.

For the compound `O=c1c(O)c(-c2ccc(O)c(O)c2)oc2cc(O)cc(O)c12` [quercetin], the “presence of residual undifferentiated pluripotent stem cells” value in data set [8] is “can reduce”.
